Assay results published in paper PMC4775402 (Pharmacological research, 2016).

Tests used:
WT HTR2A = WT HTR2A (Homo sapiens, UniProt P28223); test: Label-free DMR agonist response, HEK293T expressing WT HTR2A; type: cell-based; conditions: time to peak DMR
ΔPDZ HTR2A = ΔPDZ HTR2A (Homo sapiens, UniProt P28223); test: Label-free DMR agonist response, HEK293T expressing ΔPDZ HTR2A; type: cell-based
WT ADRA1D = conditions: cited from earlier work
ΔPDZ ADRA1D = conditions: cited from earlier work

Sequence of ΔPDZ HTR2A (P28223 1-467 limits assumed, stated change not applied): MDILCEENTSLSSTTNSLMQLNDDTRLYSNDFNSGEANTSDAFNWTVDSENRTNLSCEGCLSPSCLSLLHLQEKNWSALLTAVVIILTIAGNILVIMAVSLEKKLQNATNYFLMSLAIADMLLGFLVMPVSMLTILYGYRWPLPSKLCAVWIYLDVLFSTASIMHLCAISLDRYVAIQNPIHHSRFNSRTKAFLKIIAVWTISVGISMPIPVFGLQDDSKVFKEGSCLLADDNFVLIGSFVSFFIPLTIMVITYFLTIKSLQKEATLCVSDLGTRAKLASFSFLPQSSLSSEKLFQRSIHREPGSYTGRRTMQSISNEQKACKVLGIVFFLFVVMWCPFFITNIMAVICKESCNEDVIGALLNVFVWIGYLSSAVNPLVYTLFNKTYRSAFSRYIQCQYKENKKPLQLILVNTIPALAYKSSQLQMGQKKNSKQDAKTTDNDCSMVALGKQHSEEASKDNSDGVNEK
Sequence of WT HTR2A (P28223 whole entry): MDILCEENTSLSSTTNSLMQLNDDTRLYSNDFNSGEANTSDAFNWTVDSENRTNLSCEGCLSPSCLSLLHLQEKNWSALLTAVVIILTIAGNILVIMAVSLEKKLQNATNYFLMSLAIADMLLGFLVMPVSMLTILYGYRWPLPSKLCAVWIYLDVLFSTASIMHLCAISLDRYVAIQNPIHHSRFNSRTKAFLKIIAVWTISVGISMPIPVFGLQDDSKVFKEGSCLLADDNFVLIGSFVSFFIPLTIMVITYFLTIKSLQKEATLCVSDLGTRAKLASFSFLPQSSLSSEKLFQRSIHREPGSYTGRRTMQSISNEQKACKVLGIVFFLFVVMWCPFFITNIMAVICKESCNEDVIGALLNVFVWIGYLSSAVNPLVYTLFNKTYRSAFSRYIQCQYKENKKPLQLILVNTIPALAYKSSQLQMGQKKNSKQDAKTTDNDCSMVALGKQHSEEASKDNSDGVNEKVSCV

Compound	WT TTP (WT HTR2A) [s]	ΔPDZ Max (DMR) (ΔPDZ HTR2A; maximal agonist DMR response)	ΔPDZ TTP (ΔPDZ HTR2A; time to peak DMR) [s]	enhancement of the DMR response (WT ADRA1D; ADRA1D with overexpression of SCRIB alone) [fold]	activation, DMR (in words) (WT ADRA1D; WT ADRA1D)	activation, DMR (in words) (ΔPDZ ADRA1D)
Cl.NCCc1c[nH]c2ccc(O)cc12 [5-hydroxytryptamine, 5-hydroxytryptamine hydrochloride]	14.10	106.10 ± 3.96	14.70	–	–	–
CNC[C@H](O)c1cccc(O)c1 [phenylephrine]	–	–	–	~5	weak activation	weak activation
